Legend:
[1] = test system: participants with SSc-RP; assay: SHAQ - Alternative Disability Index; type: in vivo, human; conditions: Pooled cilnidipine (n=4)
Source text: The SHAQ is used to calculate a Disability Index to assess the participant qualify of life. The eight categories assessed by the Disability Index are 1) dressing and grooming, 2) arising, 3) eating, 4) walking, 5) hygiene, 6) reach, 7) grip, and 8) common daily activities. For each of these categories, patients report the amount of difficulty they have in performing two or three specific activities.
There are four possible responses for the Disability Index questions: • Without any difficulty=0 • With some difficulty=1 • With much difficulty=2 • Unable to do=3 • The highest score reported by the patient for any component question of the eight categories determines the score for that category. • If a component question is left blank or the response is too ambiguous to assign a score, then the score for that category is determined by the remaining completed question(s). • If all component questions are blank or if more than one answer is given, then follow up with the respondent is required. • If the respondent's mark is between the response columns, then move it to the closest one. If it's directly between the two, move it to the higher one.
The aid and device variables are not used to calculate the alternative disability index; it is calculated by adding the scores for each of the categories and dividing by the number of categories answered. This gives a score in the 0 to 3 range.

[2] = test system: participants with SSc-RP; assay: SHAQ - Visual Analog Scale - Raynaud's; type: in vivo, human; parameters: SHAQ Visual Analogue Scale - Raynaud's, In-Clinic Visit (Day 12), Mean / SHAQ Visual Analogue Scale - Raynaud's, In-Clinic Visit (Day 12), Median / SHAQ Visual Analogue Scale - Raynaud's: In-Clinic Visit (Day 12), Median: scale not given here; conditions: for % change VAS Raynauds: SHAQ, mITT Part A
Source text: The SHAQ includes a Raynaud's VAS, which will be reported at screening and each in-clinic visit. The absolute change in Raynaud-VAS, assessed by the participants response to the SHAQ question ‘In the past 7 days, how much have your Raynaud's interfered with your daily activities?’ at baseline and the end of each dosing period will be calculated similar to frequency data as before.
The standard, validated, patient reported outcome measures tool for SSc patients, the SHAQ, was collected at the time points specified in the study schedules (FIG. 2 and FIGS. 4A and 4B) to assess the participant's quality of life. The SHAQ included a Raynaud's VAS that will also be reported separately.

[3] = Any Cilnidipine (N = 17), Day 12, PP Population, Part A
[4] = Cilnidipine 20 mg (N = 4), Day 12, PP Population, Part A
[5] = Pooled Cilnidipine 10 mg and Cilnidipine 10 mg + Tadalafil 5 mg (N = 9), Day 12, PP Population, Part A
[6] = Pooled Cilnidipine 20 mg and Cilnidipine 20 mg + Tadalafil 5 mg (N = 7), Modified ITT Population - Part A
[7] = Pooled Cilnidipine (N = 8), Day 12, PP Population, Part A
[8] = cilnidipine 10 mg (combination: + tadalafil 5 mg)
[9] = cilnidipine 20 mg (combination: + tadalafil 5 mg)

**Q.** Which results are given for `COCCOC(=O)C1=C(C)NC(C)=C(C(=O)OC/C=C/c2ccccc2)C1c1cccc([N+](=O)[O-])c1` (stereo not shown) [Cilnidipine]?
**A.** % Δ from baseline, alternative disability mean [1]: −12.9%; SHAQ Visual Analogue Scale - Raynaud's, Change from Baseline, Mean (SD) [2, 3]: −0.696 (1.3935); SHAQ Visual Analogue Scale - Raynaud's, Change from Baseline, Median [2, 3]: −0.300; SHAQ Visual Analogue Scale - Raynaud's, In-Clinic Visit (Day 12), Mean (SD) [2, 3]: 2.022 (1.8357); SHAQ Visual Analogue Scale - Raynaud's, In-Clinic Visit (Day 12), Median [2, 3]: 1.400; SHAQ Visual Analogue Scale - Raynaud's, Percent Change from Baseline, Mean (SD) [2, 3]: −20.44 (55.098) %; SHAQ Visual Analogue Scale - Raynaud's, Percent Change from Baseline, Median [2, 3]: −33.33%; SHAQ Visual Analogue Scale - Raynaud's, Change from Baseline, Median ([2]; Cilnidipine 10 mg (N = 4), Day 12, PP Population, Part A): 0.350; SHAQ Visual Analogue Scale - Raynaud's, Change from Baseline, Mean [2, 4]: −1.200; SHAQ Visual Analogue Scale - Raynaud's, In-Clinic Visit (Day 12), Median [2, 4]: 1.250; % change VAS Raynauds ([2]; Cilnidipine 20 mg (n = 3)): −49%; SHAQ Visual Analogue Scale - Raynaud's, Percent Change from Baseline, Median ([2]; Cilnidipine 20 mg, Day 12 vs Baseline, PP Population Part A, sensitivity analysis): −38.67%; SHAQ Visual Analogue Scale - Raynaud's, Change from Baseline, Mean [2, 5]: −0.414; SHAQ Visual Analogue Scale - Raynaud's, Change from Baseline, Median [2, 5]: −0.100; SHAQ Visual Analogue Scale - Raynaud's, In-Clinic Visit (Day 12), Median [2, 5]: 2.600; SHAQ Visual Analogue Scale - Raynaud's, Percent Change from Baseline, Mean [2, 5]: −9.97%; SHAQ Visual Analogue Scale - Raynaud's, Percent Change from Baseline, Median [2, 5]: −4.39%; SHAQ Visual Analogue Scale - Raynaud's, Change from Baseline, Median ([2]; Pooled Cilnidipine 20 mg and Cilnidipine 20 mg + Tadalafil 5 mg (N = 7), Day 12, Modified ITT Population - Part A): −0.300; SHAQ Visual Analogue Scale - Raynaud's, In-Clinic Visit (Day 12), Mean [2, 6]: 1.300; SHAQ Visual Analogue Scale - Raynaud's, In-Clinic Visit (Day 12), Median [2, 6]: 0.600; SHAQ Visual Analogue Scale - Raynaud's, In-Clinic Visit (Day 12), Median ([2]; Pooled Cilnidipine 20 mg and Cilnidipine 20 mg + Tadalafil 5 mg (N = 8), Day 12, PP Population, Part A): 0.850; SHAQ Visual Analogue Scale - Raynaud's, Change from Baseline, Mean (SD) [2, 7]: −0.438 (1.2094); SHAQ Visual Analogue Scale - Raynaud's, In-Clinic Visit (Day 12), Mean [2, 7]: 1.900; SHAQ Visual Analogue Scale - Raynaud's, In-Clinic Visit (Day 12), Mean (SD) [2, 7]: 1.900 (1.6861); SHAQ Visual Analogue Scale - Raynaud's, Percent Change from Baseline, Mean (SD) [2, 7]: −18.62 (75.571) %; % change VAS Raynauds ([2]; Pooled Cilnidipine (n = 7)): −17%; SHAQ Visual Analogue Scale - Raynaud's: Change from Baseline, Median ([2]; Sensitivity Analysis (diagnosis of SSc), Modified ITT, Part A, Day 12, Any Cilnidipine (N = 14)): −0.300; SHAQ Visual Analogue Scale - Raynaud's: Percent Change from Baseline, Mean ([2]; Sensitivity Analysis (diagnosis of SSc), Modified ITT, Part A, Day 12, Pooled Cilnidipine (N = 6)): −18.64%; SHAQ Visual Analogue Scale - Raynaud's: In-Clinic Visit (Day 12), Median ([2]; Sensitivity Analysis (diagnosis of SSc), Modified ITT, Part A, Day 12, arms Cilnidipine 10 mg, Tadalafil 5 mg, Cilnidipine 10 mg + Tadalafil 5 mg): 2.600; SHAQ Visual Analogue Scale - Raynaud's: In-Clinic Visit (Day 12), Median ([2]; Sensitivity Analysis (diagnosis of SSc), Modified ITT, Part A, Day 12, arms Cilnidipine 20 mg, Cilnidipine 20 mg + Tadalafil 5 mg): 1.100; VAS Raynaud's Change from Baseline Max [2, 8]: 1.50; VAS Raynaud's Change from Baseline Median [2, 8]: 0.350; VAS Raynaud's Change from Baseline Min [2, 8]: −0.90; VAS Raynaud's Change from Baseline Q1 [2, 8]: −0.500; VAS Raynaud's Change from Baseline Q3 [2, 8]: 1.150; VAS Raynaud's Day 12 Max [2, 8]: 4.30; VAS Raynaud's Day 12 Median [2, 8]: 1.700; VAS Raynaud's Day 12 Min [2, 8]: 0.00; VAS Raynaud's Day 12 Q1 [2, 8]: 0.400; VAS Raynaud's Day 12 Q3 [2, 8]: 3.450; VAS Raynaud's Percent Change from Baseline Max [2, 8]: 136.4%; VAS Raynaud's Percent Change from Baseline Mean [2, 8]: 11.36%; VAS Raynaud's Percent Change from Baseline Median [2, 8]: −2.27%; VAS Raynaud's Percent Change from Baseline Min [2, 8]: −100.0%; VAS Raynaud's Percent Change from Baseline Q1 [2, 8]: −100.00%; VAS Raynaud's Change from Baseline Max [2, 9]: −0.30; VAS Raynaud's Change from Baseline Mean [2, 9]: −1.267; VAS Raynaud's Change from Baseline Median [2, 9]: −1.100; VAS Raynaud's Change from Baseline Min [2, 9]: −2.40; VAS Raynaud's Change from Baseline Q1 [2, 9]: −2.400; VAS Raynaud's Change from Baseline Q3 [2, 9]: −0.300; VAS Raynaud's Day 12 Max [2, 9]: 1.40; VAS Raynaud's Day 12 Median [2, 9]: 1.100; VAS Raynaud's Day 12 Min [2, 9]: 0.60; VAS Raynaud's Day 12 Q1 [2, 9]: 0.600; VAS Raynaud's Day 12 Q3 [2, 9]: 1.400; VAS Raynaud's Percent Change from Baseline Mean [2, 9]: −48.63%; VAS Raynaud's Percent Change from Baseline Median [2, 9]: −44.00%; VAS Raynaud's Percent Change from Baseline Min [2, 9]: −68.6%; VAS Raynaud's Percent Change from Baseline Q1 [2, 9]: −68.57%; VAS Raynaud's Percent Change from Baseline Q3 [2, 9]: −33.33%
